≈ marks a conversion by molar mass, not a printed value.
What was measured:
S. aureus [1] = assay: MIC in bacteriological broth (CLSI VET01-A4); format: cell-based, Staphylococcus aureus
Experimental: (§1) Minimal inhibitory concentrations (MIC) were determined in bacteriological broth according to Clinical and Laboratory Standard Institute (CLSI) guideline VET01-A4 [1]. The MIC results were interpreted according to the CLSI document VET01-S3 [2].

coa-neg Staph. = assay: MIC in bacteriological broth (CLSI VET01-A4); format: cell-based, coagulase-negative staphylococci
Experimental: as §1

Strep. agalactiae = assay: MIC in bacteriological broth (CLSI VET01-A4); format: cell-based, Streptococcus agalactiae
Experimental: as §1

Strep. dysgalactiae = assay: MIC in bacteriological broth (CLSI VET01-A4); format: cell-based, Streptococcus dysgalactiae
Experimental: as §1

S. uberis = assay: MIC in bacteriological broth (CLSI VET01-A4); format: cell-based, Streptococcus uberis
Experimental: as §1

Truep. pyogenes = assay: MIC in bacteriological broth (CLSI VET01-A4); format: cell-based, Trueperella pyogenes
Experimental: as §1

S. aureus [2] = assay: MIC in full cream UHT milk with alamar Blue; format: cell-based, Staphylococcus aureus
Experimental: (§2) For MIC determination in milk, the in vitro activity was determined by measuring the minimum inhibitory concentrations (MIC) according to CLSI document VET01-A4 [1] using full cream UHT milk as test medium. About 2 h before the end of the incubation 10 μL of alamar Blue® was added to each well of the microdilution trays, resulting in a final concentration of 10% of alamar Blue®. Blue color of the medium indicated no living cells (no bacterial growth) red/pink to white color of the medium indicated living cells (bacterial growth). The MIC results were interpreted according to the CLSI document VET01-S3 [2].

Streptococcus uberis = assay: Experimental mastitis infection model in lactating cows; format: in vivo; conditions: oily suspension 200 mg/quarter intramammary, three consecutive times after milking, 21 days observation, FIG. 1
Experimental: In short, the hind quarters of 10 healthy cows were infected with Streptococcus uberis by intramammary application of 100 bacteria per quarter. At appearance of clinical signs of the challenged quarters (abnormal milk appearance, swollen/hard quarter, pain on palpation) one hind quarter of each cow was treated with an oily suspension of avilamycin at a dose of 200 mg/quarter at three consecutive times after milking. Furthermore, the neighboring infected hint quarter showing clinical signs was mock treated with formulation vehicle at the identical dose volume and schedule. Milk samples were analyzed for S. uberis over a period of 21 days.

[3] = tested on: mastitis-causing pathogens; assay: Antimicrobial activity against mastitis-causing pathogens (overall statement); format: cell-based; conditions: broth-dilution assay and milk
Experimental: as §1, §2

[4] = bacteriological broth, 50 S. aureus isolates tested
[5] = broth, of 50 S. aureus isolates
[6] = bacteriological broth, 30 coa-neg Staph. isolates tested
[7] = broth, of 30 coa-neg Staph. isolates
[8] = bacteriological broth, 30 Strep. agalactiae isolates tested
[9] = broth, of 30 Strep. agalactiae isolates
[10] = bacteriological broth, 29 Strep. dysgalactiae isolates tested
[11] = broth, of 29 Strep. dysgalactiae isolates
[12] = bacteriological broth, 30 S. uberis isolates tested
[13] = broth, of 30 S. uberis isolates
[14] = bacteriological broth, 30 Truep. pyogenes isolates tested
[15] = broth, of 30 Truep. pyogenes isolates

COC[C@H]1O[C@@H](OC2OC[C@@H]3O[C@]4(O[C@H]3[C@H]2OC(=O)C(C)C)O[C@H](C)[C@@](O)(C(C)=O)[C@@H]2OCO[C@H]24)[C@@H](OC)[C@@H](O)[C@@H]1O[C@@H]1O[C@H](C)[C@H](OC)[C@H](O[C@H]2C[C@@]3(C)OC4(C[C@@H](O)[C@H](O[C@H]5C[C@@H](O)[C@H](OC(=O)c6c(C)c(Cl)c(O)c(Cl)c6OC)[C@@H](C)O5)[C@@H](C)O4)O[C@@H]3[C@@H](C)O2)[C@H]1O (some centres unmarked) [avilamycin]
MIC50 (S. aureus [1]; [4]): 2 µg/mL (≈ 1.42 µM) | MIC90 (S. aureus [1]; [4]): 4 µg/mL (≈ 2.85 µM) | Maximum MIC (S. aureus [1]; [4]): 4 µg/mL | Minimum MIC (S. aureus [1]; [4]): 1 µg/mL | Number of isolates with MIC 1 μg/mL (S. aureus [1]; [5]): 5 | Number of isolates with MIC 2 μg/mL (S. aureus [1]; [5]): 19 | Number of isolates with MIC 4 μg/mL (S. aureus [1]; [5]): 26 | MIC50 (coa-neg Staph.; [6]): 2 µg/mL (≈ 1.42 µM) | MIC90 (coa-neg Staph.; [6]): 4 µg/mL (≈ 2.85 µM) | Maximum MIC (coa-neg Staph.; [6]): 32 µg/mL | Minimum MIC (coa-neg Staph.; [6]): 1 µg/mL | Number of isolates with MIC 1 μg/mL (coa-neg Staph.; [7]): 4 | Number of isolates with MIC 2 μg/mL (coa-neg Staph.; [7]): 13 | Number of isolates with MIC 4 μg/mL (coa-neg Staph.; [7]): 11 | Number of isolates with MIC 8 μg/mL (coa-neg Staph.; [7]): 1 | Number of isolates with MIC 32 μg/mL (coa-neg Staph.; [7]): 1 | MIC50 (Strep. agalactiae; [8]): ≤0.063 µg/mL | MIC90 (Strep. agalactiae; [8]): 0.125 µg/mL (≈ 0.089 µM) | Maximum MIC (Strep. agalactiae; [8]): 0.125 µg/mL | Minimum MIC (Strep. agalactiae; [8]): ≤0.063 µg/mL | Number of isolates with MIC 0.125 μg/mL (Strep. agalactiae; [9]): 13 | Number of isolates with MIC ≤0.063 μg/mL (Strep. agalactiae; [9]): 17 | MIC50 (Strep. dysgalactiae; [10]): 0.125 µg/mL (≈ 0.089 µM) | MIC90 (Strep. dysgalactiae; [10]): 0.25 µg/mL (≈ 0.178 µM) | Maximum MIC (Strep. dysgalactiae; [10]): 0.25 µg/mL | Minimum MIC (Strep. dysgalactiae; [10]): ≤0.063 µg/mL | Number of isolates with MIC 0.125 μg/mL (Strep. dysgalactiae; [11]): 23 | Number of isolates with MIC 0.25 μg/mL (Strep. dysgalactiae; [11]): 5 | Number of isolates with MIC ≤0.063 μg/mL (Strep. dysgalactiae; [11]): 1 | MIC50 (S. uberis; [12]): 0.5 µg/mL (≈ 0.356 µM) | MIC90 (S. uberis; [12]): 0.5 µg/mL (≈ 0.356 µM) | Maximum MIC (S. uberis; [12]): 0.5 µg/mL | Minimum MIC (S. uberis; [12]): 0.125 µg/mL | Number of isolates with MIC 0.125 μg/mL (S. uberis; [13]): 1 | Number of isolates with MIC 0.25 μg/mL (S. uberis; [13]): 12 | Number of isolates with MIC 0.5 μg/mL (S. uberis; [13]): 17 | MIC50 (Truep. pyogenes; [14]): ≤0.063 µg/mL | MIC90 (Truep. pyogenes; [14]): ≤0.063 µg/mL | Maximum MIC (Truep. pyogenes; [14]): 0.125 µg/mL | Minimum MIC (Truep. pyogenes; [14]): ≤0.063 µg/mL | Number of isolates with MIC 0.125 μg/mL (Truep. pyogenes; [15]): 1 | Number of isolates with MIC ≤0.063 μg/mL (Truep. pyogenes; [15]): 29 | Activity in milk (S. aureus [2]): maintained its activity | MIC90 against S. aureus compared with MIC90 of penicillin G (S. aureus [2]): significantly lower | Distribution of MIC values: isolates with MIC 0.125 μg/ml (S. aureus [2]; S. aureus (n = 20)): 0 | Distribution of MIC values: isolates with MIC 0.25 μg/ml (S. aureus [2]; S. aureus (n = 20)): 0 | Distribution of MIC values: isolates with MIC 0.5 μg/ml (S. aureus [2]; S. aureus (n = 20)): 1 | Distribution of MIC values: isolates with MIC 1 μg/ml (S. aureus [2]; S. aureus (n = 20)): 1 | Distribution of MIC values: isolates with MIC 2 μg/ml (S. aureus [2]; S. aureus (n = 20)): 1 | Distribution of MIC values: isolates with MIC 4 μg/ml (S. aureus [2]; S. aureus (n = 20)): 16 | Distribution of MIC values: isolates with MIC 8 μg/ml (S. aureus [2]; S. aureus (n = 20)): 1 | Distribution of MIC values: isolates with MIC 16 μg/ml (S. aureus [2]; S. aureus (n = 20)): 0 | Distribution of MIC values: isolates with MIC 32 μg/ml (S. aureus [2]; S. aureus (n = 20)): 0 | Distribution of MIC values: isolates with MIC 64 μg/ml (S. aureus [2]; S. aureus (n = 20)): 0 | Distribution of MIC values: isolates with MIC >64 μg/ml (S. aureus [2]; S. aureus (n = 20)): 0 | Distribution of MIC values: isolates with MIC ≤0.063 μg/ml (S. aureus [2]; S. aureus (n = 20)): 0 | MIC90 (S. aureus [2]; S. aureus (n = 20)): 4 µg/mL (≈ 2.85 µM) | Proportion of quarters free of S. uberis compared to quarters treated with vehicle (Streptococcus uberis): substantially higher | Antimicrobial activity against mastitis-causing pathogens [3]: Good antimicrobial activity
